Data from article PMC4177392, “Modulation of Cytochrome P450 Metabolism and Transport across Intestinal Epithelial Barrier by Ginger Biophenolics” (PLoS ONE, 2014).
In brackets after ≈: the same amount, converted by molar mass.

Key:
CYP2E1 = CYP2E1 (Homo sapiens, UniProt P05181); test: CYP2E1 inhibition in human liver microsomes (substrate chlorzoxazone)
Description: (§1) Stock solution for each CYP specific probe substrate was prepared in such a way that the final concentration is below the reported Km value.
(§2) A microsome-buffer-substrate mixture (MBS mix) was prepared for each isozyme by pre-mixing appropriate volumes of sodium phosphate buffer (pH 7.4, 50 mM), microsomes and substrate (Table S2 in File S1). 179 µL of MBS mix was transferred to 96-well reaction plate to which 1 µL of inhibitor stock solution was added to achieve the final target inhibitor concentration. The reaction plate was pre-incubated for 10 min at 37°C followed by reaction initiation by addition of 20 µL of 10 mM NADPH solution. The reaction plate was then incubated at 37°C for a predetermined time period following which it was quenched with 200 µL ACN for all CYPs and 200 µL 1% formic acid in water∶ACN (70∶30) for CYP1A2. In all cases, the final incubations after addition of substrate and inhibitor contained 0.1% DMSO (v/v), and the total organic solvent (DMSO and ACN) content was less than or equal to 1% (v/v). The details of final substrate concentration, incubation time, microsomal protein concentration in the reaction mixtures and the metabolites monitored for each isozyme tested are presented in Table S3 in File S1.
(§3) All samples were processed using protein precipitation method and analyzed by employing positive (for all CYPs) and negative (for CYP2A6, 2C19 and 2E1) ionization mode in liquid chromatography tandem mass spectrometry (API4000, Applied Biosystems, USA). The peak area ratio of analyte to IS was used for calculations. An isocratic method comprising 5 mM ammonium formate and ACN (40∶60) with 0.05% formic acid was used for elution. For CYP2C19, a mobile phase consisting of 5 mM ammonium formate and ACN (30∶70) was used. The analytes and internal standards were retained on BDS Hypersil Phenyl (150×4.6 mm, 5 µ, Thermo, USA) column. A flow rate of 0.5 mL/min (CYP1A2), 0.6 mL/min (CYP2C19, CYP2E1), 0.7 mL/min (CYP2C9), 0.8 mL/min (CYP2A6, CYP3A), 1.0 mL/min (CYP2B6, CYP2C8, CYP2D6) was maintained using Shimadzu Prominence solvent delivery system (LC-20AD). The mobile phase was degassed using degasser (DGU-20A3), samples were loaded into autosampler (SIL-HTc) and the column temperature was maintained at 40°C by column oven (CTO-20A). Injection volumes for the samples were as follows: 5 µL (CYP1A2, CYP2D6, and CYP3A), 10 µL (CYP2B6, CYP2C8, and CYP2E1) and 20 µL (CYP2A6, CYP2C9, and CYP2C19). Data was collected and processed using Sciex Analyst 1.4.2. All the structures of inhibitors, substrates, metabolites and internal standards for each CYP enzyme are represented in Table S6 in File S1.
The IC50 value was estimated from the percentage reduction in CYP activity at eleven inhibitor concentrations with respect to control.
(§4) The data was analysed using 4PL (parameter logistic model), 3PLFB (bottom fixed), 3PLFT (top fixed), 2PL (top and bottom fixed), and the relative IC50 was with lowest standard error was further manipulation. Absolute IC50 was calculated from this relative IC50 by using the equation below: [drawing 3]

CYP2D6 = CYP2D6 (Homo sapiens, UniProt P10635); test: CYP2D6 inhibition in human liver microsomes (substrate dextromethorphan); assay type: in vitro ADME
Description: (§5) The highest concentration of GE used in the assay was 500 µg/mL equivalent. Stock solution for each CYP specific probe substrate was prepared in such a way that the final concentration is below the reported Km value.
(§6) A microsome-buffer-substrate mixture (MBS mix) was prepared for each isozyme by pre-mixing appropriate volumes of sodium phosphate buffer (pH 7.4, 50 mM), microsomes and substrate (Table S2 in File S1). 179 µL of MBS mix was transferred to 96-well reaction plate to which 1 µL of inhibitor stock solution was added to achieve the final target inhibitor concentration. The reaction plate was pre-incubated for 10 min at 37°C followed by reaction initiation by addition of 20 µL of 10 mM NADPH solution. The reaction plate was then incubated at 37°C for a predetermined time period following which it was quenched with 200 µL ACN for all CYPs and 200 µL 1% formic acid in water∶ACN (70∶30) for CYP1A2. In all cases, the final incubations after addition of substrate and inhibitor contained 0.1% DMSO (v/v), and the total organic solvent (DMSO and ACN) content was less than or equal to 1% (v/v). The details of final substrate concentration, incubation time, microsomal protein concentration in the reaction mixtures and the metabolites monitored for each isozyme tested are presented in Table S3 in File S1. The incubations were performed in singlet for individual gingerols and in duplicate for GE along with respective positive controls.
(§7) All samples were processed using protein precipitation method and analyzed by employing positive (for all CYPs) and negative (for CYP2A6, 2C19 and 2E1) ionization mode in liquid chromatography tandem mass spectrometry (API4000, Applied Biosystems, USA). The peak area ratio of analyte to IS was used for calculations. An isocratic method comprising 5 mM ammonium formate and ACN (40∶60) with 0.05% formic acid was used for elution. For CYP2C19, a mobile phase consisting of 5 mM ammonium formate and ACN (30∶70) was used. The analytes and internal standards were retained on BDS Hypersil Phenyl (150×4.6 mm, 5 µ, Thermo, USA) column. A flow rate of 0.5 mL/min (CYP1A2), 0.6 mL/min (CYP2C19, CYP2E1), 0.7 mL/min (CYP2C9), 0.8 mL/min (CYP2A6, CYP3A), 1.0 mL/min (CYP2B6, CYP2C8, CYP2D6) was maintained using Shimadzu Prominence solvent delivery system (LC-20AD). The mobile phase was degassed using degasser (DGU-20A3), samples were loaded into autosampler (SIL-HTc) and the column temperature was maintained at 40°C by column oven (CTO-20A). […]

CYP2C19 = CYP2C19 (Homo sapiens, UniProt P33261); test: CYP2C19 inhibition in human liver microsomes (substrate (S)-mephenytoin); assay type: in vitro ADME
Description: as §5, §6, §7

CYP2A6 = target: T1, CYP2A6 (Homo sapiens, UniProt P11509); test: CYP2A6 inhibition in human liver microsomes (substrate coumarin); assay type: in vitro ADME
T1 sequence (P11509 1-494): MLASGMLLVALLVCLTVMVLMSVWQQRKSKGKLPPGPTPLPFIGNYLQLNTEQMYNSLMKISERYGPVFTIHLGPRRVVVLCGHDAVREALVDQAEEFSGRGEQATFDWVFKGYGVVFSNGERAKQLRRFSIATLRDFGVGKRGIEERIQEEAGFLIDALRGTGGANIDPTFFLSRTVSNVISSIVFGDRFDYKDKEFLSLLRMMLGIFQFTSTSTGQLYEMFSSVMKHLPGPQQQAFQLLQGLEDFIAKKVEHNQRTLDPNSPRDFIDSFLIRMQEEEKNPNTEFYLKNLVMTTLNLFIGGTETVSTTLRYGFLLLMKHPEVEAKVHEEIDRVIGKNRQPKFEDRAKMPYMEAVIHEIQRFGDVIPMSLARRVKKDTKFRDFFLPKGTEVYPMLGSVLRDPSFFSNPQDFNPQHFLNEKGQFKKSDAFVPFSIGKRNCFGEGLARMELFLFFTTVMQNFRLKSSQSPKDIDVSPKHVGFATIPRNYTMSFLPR
Description: as §5
(§8) A microsome-buffer-substrate mixture (MBS mix) was prepared for each isozyme by pre-mixing appropriate volumes of sodium phosphate buffer (pH 7.4, 50 mM), microsomes and substrate (Table S2 in File S1). 179 µL of MBS mix was transferred to 96-well reaction plate to which 1 µL of inhibitor stock solution was added to achieve the final target inhibitor concentration. The reaction plate was pre-incubated for 10 min at 37°C followed by reaction initiation by addition of 20 µL of 10 mM NADPH solution. The reaction plate was then incubated at 37°C for a predetermined time period following which it was quenched with 200 µL ACN for all CYPs and 200 µL 1% formic acid in water∶ACN (70∶30) for CYP1A2. In all cases, the final incubations after addition of substrate and inhibitor contained 0.1% DMSO (v/v), and the total organic solvent (DMSO and ACN) content was less than or equal to 1% (v/v). […] The incubations were performed in singlet for individual gingerols and in duplicate for GE along with respective positive controls.

CYP3A4 [1] = target: T2, CYP3A4 (Homo sapiens, UniProt P08684); test: CYP3A4 inhibition in human liver microsomes (substrate midazolam); assay type: in vitro ADME; settings: human liver microsomes; substrate midazolam; gingerols and GE
Description: as §5, §6, §7

CYP2B6 = target: T3, CYP2B6 (Homo sapiens, UniProt P20813); test: CYP2B6 inhibition in human liver microsomes (substrate bupropion); assay type: in vitro ADME
T3 sequence (P20813 1-491): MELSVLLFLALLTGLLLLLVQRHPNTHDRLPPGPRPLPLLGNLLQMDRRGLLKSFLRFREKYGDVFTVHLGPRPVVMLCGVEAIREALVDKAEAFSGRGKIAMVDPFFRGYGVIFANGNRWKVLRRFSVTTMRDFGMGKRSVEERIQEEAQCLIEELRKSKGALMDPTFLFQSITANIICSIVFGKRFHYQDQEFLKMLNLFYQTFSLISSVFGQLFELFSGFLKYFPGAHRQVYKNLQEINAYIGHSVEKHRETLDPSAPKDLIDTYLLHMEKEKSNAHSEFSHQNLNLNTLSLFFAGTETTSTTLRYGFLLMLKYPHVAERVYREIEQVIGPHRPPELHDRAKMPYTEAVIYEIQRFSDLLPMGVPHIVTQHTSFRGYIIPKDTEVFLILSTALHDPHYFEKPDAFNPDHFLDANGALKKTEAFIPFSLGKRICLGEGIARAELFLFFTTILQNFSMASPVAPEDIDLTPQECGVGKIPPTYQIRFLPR
Description: as §5, §8

[2] = humans, oral 2 g GE; as glucuronide and sulfate conjugates; cited from earlier work
Caco-2 monolayer = test: Caco-2 permeability assay; settings: 10 µM; for Intracellular (cell) accumulation: direction not given; for Papp: n = 3, mean ± SD
CYP3A4 [3] = target: T2, CYP3A4; test: CYP3A4 inhibition in human liver microsomes (substrate testosterone); assay type: in vitro ADME
Description: as §5, §8

CYP2C8 = target: T4, CYP2C8 (Homo sapiens, UniProt P10632); test: CYP2C8 inhibition in human liver microsomes (substrate amodiaquine); assay type: in vitro ADME
T4 sequence (P10632 1-490): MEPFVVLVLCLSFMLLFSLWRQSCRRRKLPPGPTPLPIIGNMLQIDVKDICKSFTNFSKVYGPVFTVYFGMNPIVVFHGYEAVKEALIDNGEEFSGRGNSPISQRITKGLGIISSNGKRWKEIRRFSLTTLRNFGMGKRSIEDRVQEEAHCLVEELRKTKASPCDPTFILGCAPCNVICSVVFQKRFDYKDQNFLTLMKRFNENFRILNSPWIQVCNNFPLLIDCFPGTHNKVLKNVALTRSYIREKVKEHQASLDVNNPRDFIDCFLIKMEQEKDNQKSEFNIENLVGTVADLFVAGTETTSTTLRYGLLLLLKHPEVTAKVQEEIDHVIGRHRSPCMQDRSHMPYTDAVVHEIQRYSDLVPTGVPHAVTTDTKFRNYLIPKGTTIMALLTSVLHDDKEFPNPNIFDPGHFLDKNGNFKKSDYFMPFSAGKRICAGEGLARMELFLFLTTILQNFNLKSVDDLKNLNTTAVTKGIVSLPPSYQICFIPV
Description: as §5, §8

CYP2C9 = CYP2C9 (Homo sapiens, UniProt P11712); test: CYP2C9 inhibition in human liver microsomes (substrate diclofenac)
Description: as §1, §2
as §3, with “All the structures of inhibitors, substrates, metabolites and internal standards for each CYP enzyme are represented in Table S6 in File S1.” left out
as §4

CYP1A2 = target: T5, CYP1A2 (Homo sapiens, UniProt P05177); test: CYP1A2 inhibition in human liver microsomes (substrate phenacetin); assay type: in vitro ADME
T5 construct: […]; tissue XenoTechLLC H0610
T5 sequence (P05177 1-516): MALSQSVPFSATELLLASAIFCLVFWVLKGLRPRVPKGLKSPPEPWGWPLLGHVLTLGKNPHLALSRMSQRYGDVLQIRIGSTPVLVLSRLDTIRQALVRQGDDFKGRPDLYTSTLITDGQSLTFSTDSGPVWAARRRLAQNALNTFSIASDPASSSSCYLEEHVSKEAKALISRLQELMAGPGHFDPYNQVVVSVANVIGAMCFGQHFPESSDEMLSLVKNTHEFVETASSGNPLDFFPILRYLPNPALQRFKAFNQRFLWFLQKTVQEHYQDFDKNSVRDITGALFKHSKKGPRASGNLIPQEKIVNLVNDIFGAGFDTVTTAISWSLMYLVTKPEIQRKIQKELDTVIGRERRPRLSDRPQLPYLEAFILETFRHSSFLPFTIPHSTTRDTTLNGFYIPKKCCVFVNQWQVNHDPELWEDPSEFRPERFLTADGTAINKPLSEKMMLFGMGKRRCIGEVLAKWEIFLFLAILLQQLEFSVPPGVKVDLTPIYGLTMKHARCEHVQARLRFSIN
Description: as §5, §8

[4] = human liver microsomes, substrate chlorzoxazone, gingerols and GE
[5] = human liver microsomes, substrate dextromethorphan, gingerols and GE
[6] = human liver microsomes, substrate (S)-mephenytoin, gingerols and GE
[7] = human liver microsomes, substrate coumarin, gingerols and GE
[8] = human liver microsomes, substrate bupropion, gingerols and GE
[9] = human liver microsomes, substrate testosterone, gingerols and GE
[10] = human liver microsomes, substrate amodiaquine, gingerols and GE
[11] = human liver microsomes, substrate diclofenac, gingerols and GE
[12] = human liver microsomes, substrate phenacetin, gingerols and GE

Sequence of CYP2C19 (P33261 whole entry): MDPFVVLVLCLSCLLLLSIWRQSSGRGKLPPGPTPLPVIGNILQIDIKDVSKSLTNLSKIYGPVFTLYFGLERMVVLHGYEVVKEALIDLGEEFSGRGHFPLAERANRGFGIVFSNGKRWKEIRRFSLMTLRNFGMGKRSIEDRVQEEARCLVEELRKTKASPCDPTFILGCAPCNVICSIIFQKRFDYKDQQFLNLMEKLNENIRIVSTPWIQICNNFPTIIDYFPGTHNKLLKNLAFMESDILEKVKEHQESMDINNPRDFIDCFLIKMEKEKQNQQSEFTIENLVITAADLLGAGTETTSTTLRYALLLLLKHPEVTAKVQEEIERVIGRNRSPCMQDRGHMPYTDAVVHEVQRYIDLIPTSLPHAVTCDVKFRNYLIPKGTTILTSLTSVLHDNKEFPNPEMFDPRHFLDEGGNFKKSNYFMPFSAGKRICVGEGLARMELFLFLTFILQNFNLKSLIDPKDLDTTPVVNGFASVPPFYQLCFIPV
Sequence of CYP2D6 (P10635 whole entry): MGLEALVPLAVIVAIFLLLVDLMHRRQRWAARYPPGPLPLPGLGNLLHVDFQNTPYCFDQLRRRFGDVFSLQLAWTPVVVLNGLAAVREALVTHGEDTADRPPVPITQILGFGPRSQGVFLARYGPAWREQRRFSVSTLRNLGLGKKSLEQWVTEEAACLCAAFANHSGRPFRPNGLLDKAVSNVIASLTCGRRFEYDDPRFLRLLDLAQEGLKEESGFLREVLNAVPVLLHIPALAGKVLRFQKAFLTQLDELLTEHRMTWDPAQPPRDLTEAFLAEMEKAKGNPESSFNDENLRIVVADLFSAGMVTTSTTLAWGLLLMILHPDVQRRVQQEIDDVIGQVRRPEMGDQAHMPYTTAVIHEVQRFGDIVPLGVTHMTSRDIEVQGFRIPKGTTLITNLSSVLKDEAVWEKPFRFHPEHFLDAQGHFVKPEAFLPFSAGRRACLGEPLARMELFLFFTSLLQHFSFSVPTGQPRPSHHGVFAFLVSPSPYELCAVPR
T2 sequence (P08684 2-503): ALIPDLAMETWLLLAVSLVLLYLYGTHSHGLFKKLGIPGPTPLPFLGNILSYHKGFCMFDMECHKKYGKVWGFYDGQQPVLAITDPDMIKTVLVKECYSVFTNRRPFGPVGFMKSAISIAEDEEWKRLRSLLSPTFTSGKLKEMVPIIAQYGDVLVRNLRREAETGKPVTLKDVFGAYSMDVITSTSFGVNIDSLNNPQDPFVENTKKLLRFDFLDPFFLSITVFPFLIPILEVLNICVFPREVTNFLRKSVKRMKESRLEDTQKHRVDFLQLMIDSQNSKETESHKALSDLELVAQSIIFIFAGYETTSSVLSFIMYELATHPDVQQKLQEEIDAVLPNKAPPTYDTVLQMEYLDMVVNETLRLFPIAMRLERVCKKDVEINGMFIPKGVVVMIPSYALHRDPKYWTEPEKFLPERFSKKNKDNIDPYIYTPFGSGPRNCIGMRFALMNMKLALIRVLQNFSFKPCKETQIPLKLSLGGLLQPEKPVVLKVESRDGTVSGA
Sequence of CYP2C9 (P11712 whole entry): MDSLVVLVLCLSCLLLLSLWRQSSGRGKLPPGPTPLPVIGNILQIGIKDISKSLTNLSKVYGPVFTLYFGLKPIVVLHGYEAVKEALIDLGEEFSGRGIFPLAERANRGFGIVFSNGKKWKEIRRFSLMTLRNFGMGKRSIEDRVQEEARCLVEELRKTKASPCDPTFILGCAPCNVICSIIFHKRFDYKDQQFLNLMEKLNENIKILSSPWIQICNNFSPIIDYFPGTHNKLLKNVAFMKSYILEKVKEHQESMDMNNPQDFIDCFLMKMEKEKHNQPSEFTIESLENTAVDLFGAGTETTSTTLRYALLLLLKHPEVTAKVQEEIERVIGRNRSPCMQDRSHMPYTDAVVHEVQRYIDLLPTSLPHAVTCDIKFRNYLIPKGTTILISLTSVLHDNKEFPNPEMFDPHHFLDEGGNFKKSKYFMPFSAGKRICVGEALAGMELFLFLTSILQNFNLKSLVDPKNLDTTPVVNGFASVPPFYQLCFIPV
Sequence of CYP2E1 (P05181 whole entry): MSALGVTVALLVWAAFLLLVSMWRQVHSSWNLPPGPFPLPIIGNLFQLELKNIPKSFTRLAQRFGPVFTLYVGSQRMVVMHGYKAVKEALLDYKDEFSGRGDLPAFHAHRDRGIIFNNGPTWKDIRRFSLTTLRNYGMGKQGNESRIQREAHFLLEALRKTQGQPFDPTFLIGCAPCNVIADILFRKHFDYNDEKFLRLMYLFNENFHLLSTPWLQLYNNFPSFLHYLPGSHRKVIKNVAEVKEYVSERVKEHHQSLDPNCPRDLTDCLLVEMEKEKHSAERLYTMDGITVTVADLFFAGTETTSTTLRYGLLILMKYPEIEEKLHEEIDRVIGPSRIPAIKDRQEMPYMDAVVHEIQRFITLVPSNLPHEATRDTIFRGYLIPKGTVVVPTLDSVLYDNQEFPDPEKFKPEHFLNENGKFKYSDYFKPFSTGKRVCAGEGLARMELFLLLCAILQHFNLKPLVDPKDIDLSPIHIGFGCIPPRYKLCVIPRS

Row | Compound | IC50 CYP2E1 (CYP2E1; [4]) | IC50 CYP2D6 (CYP2D6; [5]) | IC50 CYP2C19 (CYP2C19; [6]) | IC50 CYP2A6 (CYP2A6; [7]) | IC50 CYP3A4 (midazolam) (CYP3A4 [1]) | IC50 CYP2B6 (CYP2B6; [8]) | Cmax / circulating concentration in humans [2] | Intracellular (cell) accumulation (Caco-2 monolayer) | Intracellular accumulation (Caco-2 monolayer; A→B) | Papp (Caco-2 monolayer; A→B) | Intracellular accumulation (Caco-2 monolayer; B→A) | Papp (Caco-2 monolayer; B→A) | IC50 CYP3A4 (testosterone) (CYP3A4 [3]; [9]) | IC50 CYP2C8 (CYP2C8; [10]) | IC50 CYP2C9 (CYP2C9; [11]) | IC50 CYP1A2 (CYP1A2; [12]) | Efflux Ratio (Caco-2 monolayer) | other results
1 | CCCCC/C=C/C(=O)CCc1ccc(O)c(OC)c1 [6S, 6-shogaol] | 21 µg/mL (≈ 76 µM) | 24 µg/mL (≈ 86.8 µM) | 1.1 µg/mL (≈ 3.98 µM) | 23 µg/mL (≈ 83.2 µM) | 18 µg/mL (≈ 65.1 µM) | 1.6 µg/mL (≈ 5.79 µM) | 150 ± 120 ng/mL | almost no accumulation | 0% | 0.071 ± 0.014 ×10⁻⁶ cm/s | 1% | 0.4 ± 0.2 ×10⁻⁶ cm/s | 2.3 µg/mL (≈ 8.32 µM) | 0.8 µg/mL (≈ 2.89 µM) | 0.9 µg/mL (≈ 3.26 µM) | 0.7 µg/mL (≈ 2.53 µM) | – | –
2 | CCCCCCC[C@H](O)CC(=O)CCc1ccc(O)c(OC)c1 [8G, 8-gingerol] | 30 µg/mL (≈ 93 µM) | 24 µg/mL (≈ 74.4 µM) | 2.6 µg/mL (≈ 8.06 µM) | 19 µg/mL (≈ 58.9 µM) | >32 µg/mL | 2.6 µg/mL (≈ 8.06 µM) | 230 ± 160 ng/mL | < 1% | 14% | 5.3 ± 0.8 ×10⁻⁶ cm/s | 12% | 6.9 ± 0.6 ×10⁻⁶ cm/s | 2.6 µg/mL (≈ 8.06 µM) | 0.70 µg/mL (≈ 2.17 µM) | 2.8 µg/mL (≈ 8.68 µM) | 8.8 µg/mL (≈ 27.3 µM) | 1.3 | –
3 | CCCCCCCCC[C@H](O)CC(=O)CCc1ccc(O)c(OC)c1 [10G, 10-gingerol] | – | – | – | – | >35 µg/mL | – | 530 ± 400 ng/mL | 15% | 15% | 0.9 ± 0.7 ×10⁻⁶ cm/s | 10% | 1.7 ± 0.6 ×10⁻⁶ cm/s | – | – | – | – | 1.8 | IC50 CYP2E1 (CYP2E1; microsomes): >35 µg/mL; IC50 CYP2D6 (CYP2D6; microsomes): 19 µg/mL (≈ 54.2 µM); IC50 CYP2C19 (CYP2C19; microsomes): 2.3 µg/mL (≈ 6.56 µM); IC50 CYP2A6 (CYP2A6; microsomes): 34 µg/mL (≈ 97 µM); IC50 CYP2B6 (CYP2B6; microsomes): 1.5 µg/mL (≈ 4.28 µM); IC50 CYP3A4 (testosterone) (CYP3A4 [3]; microsomes): 2.5 µg/mL (≈ 7.13 µM); IC50 CYP2C8 (CYP2C8; microsomes): 0.7 µg/mL (≈ 2 µM); IC50 CYP2C9 (CYP2C9; microsomes): 2.6 µg/mL (≈ 7.42 µM); IC50 CYP1A2 (CYP1A2; microsomes): > 35 µg/mL
